What all share (type): ADME, organism-based
The test system of series [1] is Blood. Kind of series: Biodistribution in Sprague-Dawley rat blood pretreated with unlabeled compound at 0.1 mg/kg, ip administered 30 mins before labeled compound treatment at 37 MBq, iv measured 15 mins post injection (0.11 +/- 0.01 %ID/g). Particulars: in vivo, 0.25 h; call rule not given here. On the set-up: dose 0.1 mg/kg.
The test system of series [2] is Rattus norvegicus. Description: Biodistribution in Sprague-Dawley rat cortex (front) pretreated with unlabeled compound at 5 mg/kg, ip administered 30 mins before labeled compound treatment at 37 MBq, iv measured 15 mins post infection (reference value: 0.42 +/- 0.04%ID/g). The arrangement: dose 5 mg/kg. Particulars: in vivo, 0.25 h.
The subject of the next series is Plasma. Kind of series: Drug metabolism in Sprague-Dawley rat plasma at 37 MBq, iv measured after 5 mins. Particulars: in vivo.
The test system of the next series is Brain. Description: Biodistribution in Sprague-Dawley rat rest of brain at 37 MBq, iv measured 15 mins post injection. The following applies: in vivo, 0.25 h.
Series [3] deals with Striatum. Kind of series: Biodistribution in Sprague-Dawley rat striatum pretreated with unlabeled compound at 10 mg/kg, ip administered 30 mins before labeled compound treatment at 37 MBq, iv measured 15 mins post injection (reference value: 0.13 +/- 0.22 %ID/g). The following applies: in vivo, 0.25 h. On the set-up: dose 10 mg/kg, route intravenous.
The test system of series [4] is Blood. Kind of series: Biodistribution in Sprague-Dawley rat blood at 37 MBq, iv measured 60 mins post injection. The following applies: in vivo, 1 h.
Series [5] relates to Rattus norvegicus. Kind of series: Biodistribution in Sprague-Dawley rat cortex (rest) at 37 MBq, iv measured 15 mins post injection. Particulars: in vivo, 0.25 h.
Series [6] deals with Rattus norvegicus. Description: Biodistribution in Sprague-Dawley rat cortex (front) at 37 MBq, iv measured 5 mins post injection. Particulars: in vivo.
The test system of series [7] is Hippocampus. Kind of series: Biodistribution in Sprague-Dawley rat hippocampus at 37 MBq, iv measured 60 mins post injection. Particulars: in vivo, 1 h.
Series [8] can be described thus: Biodistribution in Sprague-Dawley rat striatum pretreated with unlabeled compound at 5 mg/kg, ip administered 30 mins before labeled compound treatment at 37 MBq, iv measured 15 mins post injection (reference value: 0.13 +/- 0.22 %ID/g). Particulars: read-out: Drug uptake. The arrangement: dose 5 mg/kg, route intravenous.
Series [9] relates to Striatum. Kind of series: Biodistribution in Sprague-Dawley rat striatum pretreated with unlabeled compound at 0.1 mg/kg, ip administered 30 mins before labeled compound treatment at 37 MBq, iv measured 15 mins post injection (reference value: 0.13 +/- 0.22 %ID/g). On the set-up: dose 0.1 mg/kg, route intravenous. The following applies: in vivo, 0.25 h.
The test system of series [10] is Striatum. Kind of series: Biodistribution in Sprague-Dawley rat striatum at 37 MBq, iv measured 60 mins post injection. Particulars: in vivo, 1 h.
For a further series, the system named is Cerebellum. Description: Biodistribution in Sprague-Dawley rat cerebellum at 37 MBq, iv measured 15 mins post injection. Particulars: in vivo, 0.25 h.
Series [11] deals with Hippocampus. Description: Biodistribution in Sprague-Dawley rat hippocampus at 37 MBq, iv measured 15 mins post injection. The following applies: in vivo, 0.25 h.

Regarding `[11CH3]Oc1ncccc1-c1cccc2c(N)c3c(nc12)CN(C1CCC1)C3=O`, the Drug uptake was 0.11 % ID/g in the series with Blood [1]; 0.16 % ID/g in the series on Rattus norvegicus [2]; 0.27 % ID/g in the series on Brain; 0.08 % ID/g in the series on Striatum [3]; 0.08 % ID/g in the series with Blood [4]; 0.46 % ID/g in the series on Rattus norvegicus [5]. For the same compound, the Drug uptake in the series with Rattus norvegicus [6] is recorded as 0.47 % ID/g; in the series with Hippocampus [7], 0.09 % ID/g; in the series with Striatum [9] it was 0.14 % ID/g; with Striatum [10] it was 0.06 % ID/g; in the series with Cerebellum it was 0.34 % ID/g; in the series with Hippocampus [11] it was 0.29 % ID/g. Besides, the Drug metabolism result in the series with Plasma is listed as “Active”. Also, the tissue uptake at 0.25 h in series [8] was found to be 0.1 %ID/g.

These data come from ChEMBL document CHEMBL2057083, “Development of new carbon-11 labelled radiotracers for imaging GABAA- and GABAB-benzodiazepine receptors” (Bioorg Med Chem, 2012).
